From US5166374A, “Bile acid derivatives, processes for the preparation thereof and pharmaceutical compositions containing them” (Giuliani S.p.A., priority 1989, dated 1992)
≈ marks a conversion by molar mass, not a printed value. Entries after “also recorded” stand apart in the source; their conditions may differ. Like-named read-outs stand apart in the source and are kept apart here.

How the values were obtained:
[1] = critical micellar concentration (CMC), detergency; format: physicochemical
Procedure: -critical micellar concentration (CMC) or "detergency",
(§1) were evaluated according to conventional methods. Critical micellar concentration.
comparison with UDCA, GUDCA and TUDCA

[2] = lipophilicity (K' from retention times on C18 HPLC); format: physicochemical; details: for rK' C-18 (relative values): Table III
Description: K' = calculated from retention times (t) on C18 HPLC according to
where to = time of unretained solvent, under the following

solubility in water = format: physicochemical; details: for solubility: water
acidity constant (pKa) = format: physicochemical
Procedure: as §1

[3] = critical micellar pH (CMpH); format: physicochemical
Procedure: as §1

[4] = liver uptake, biliary secretion and metabolism after intravenous administration; format: in vivo
[5] = intestinal absorption, biliary recovery and metabolism after intraduodenal administration; format: in vivo
[6] = system: bile flow and biliary secretion; assay: effect on bile flow and biliary lipid secretion when administered i.v. to rat; format: in vivo; details: for SMAB (mean maximum biliary secretion) / SMFL (mean maximum biliary lipid secretion) / SMVo (mean maximum bile flow) / SMxol (mean maximum biliary lipid secretion): rat, i.v., Table II
Description: Effect of 24-ISOP on bile flow and biliary
SVo = mean maximum bile flow.
SM = mean maximum biliary lipid secretion.

bile flow = assay: choleretic effect after i.v. or i.d. administration; format: in vivo
[7] = Table I, calculated from retention times on C18 HPLC, CH3OH/KH2PO4 0.01 M 130/70 v/v, pH = 7, read-out: K' (converted)

| Structure (SMILES) | CMC ([1]; Table I) [mM] | SMAB (mean maximum biliary secretion) [6] [µmol/min/kg] | SMFL (mean maximum biliary lipid secretion) [6] [µmol/min/kg] | SMVo (mean maximum bile flow) [6] [mL/h/kg] | SMxol (mean maximum biliary lipid secretion) [6] [µmol/min/kg] | CMC ([1]; Table III) [mM] | rK' C-18 (relative values) [2] | solubility (in words) (solubility in water) | chromatographic logD [2, 7] | also measured |
| --- | --- | --- | --- | --- | --- | --- | --- | --- | --- | --- |
| C[C@H](CCC(=O)CCC(=O)O)[C@H]1CC[C@H]2[C@@H]3[C@@H](O)C[C@@H]4C[C@H](O)CC[C@]4(C)[C@H]3CC[C@]12C [Example 24-ISOP, 3α, 7β-dihydroxy-24-oxo-5β-cholan-27-oic acid] | 9 | 2.62 | 0.21 | 5.22 | 0.020 | – | – | – | – | chromatographic logD ([2]; c18 hplc, ch3oh/kh2po4, pH 7): 0.326; solubility (solubility in water; Solubility): 20 µM (≈ 8.97 µg/mL); pKa (acidity constant (pKa); pKa value): 4.2; critical micellar pH (in words) [3]: low critical micellar pH; also recorded: soluble when present in micellar form at a pH lower than UDCA (low CMpH); disappearance from bile ([4]; in vivo): disappears from bile with a kinetic similar to conjugate forms of UDCA and faster than UDCA; kinetic of the biliary secretion ([4]; in vivo, iv): very fast in comparison with UDCA and more similar to tauroursodeoxycholic acid; metabolites / conjugation ([4]; intravenous): no significant metabolites are present; recovery in bile ([4]; intravenous): completely recovered in bile with a rapid kinetic; metabolites ([5]; in vivo): no major metabolites are present; recovery in bile ([5]; intraduodenal): significantly higher than that of glycoursodeoxycholic and similar to UDCA and TUDCA; effect on bile flow (in words) ([6]; intravenous): great effect on bile flow, higher than that of UDCA and its conjugated forms; transport and secretion of cholesterol and phospholipids (in words) ([6]; intravenous): no significative differences; choleretic effect (bile flow): high choleretic effect, higher than that of UDCA |
| C[C@H](CCC(=O)CCC(=O)O)[C@H]1CC[C@H]2[C@@H]3[C@@H](O)C[C@@H]4C[C@H](O)CC[C@]4(C)[C@H]3C[C@H](O)[C@]12C [Example 24-PUCA, 3α, 7β, 12α-Trihydroxy-24-oxo-5β-cholan-27-oic acid] | – | – | – | – | – | 28 | 0,20 | very soluble also in protonated form | – | CMC / detergency (in words) [1]: mild detergency; lipophilicity (in words) [2]: intermediate between UCA and UDCA; water solubility relative to UDCA and 24-PUDCA (solubility in water): about 100 times; solubility (solubility in water; water solubility): 1800 µM (≈ 836 µg/mL); pKa (in words) (acidity constant (pKa)): lower to than that of the natural analogues UCA and UDCA and similar to that of 24-PUDCA; pKa (acidity constant (pKa); pKa): 3.85; critical micellar pH (in words) [3]: low CMpH value |
| C[C@H](CCC(=O)CCC(=O)O)[C@H]1CC[C@H]2[C@@H]3[C@@H](O)C[C@@H]4C[C@H](O)CC[C@]4(C)[C@H]3CC[C@]12C [Example 24-PUDCA] | – | – | – | – | – | 9 | 0,44 | – | – | solubility (solubility in water; water solubility): 13 µM (≈ 5.83 µg/mL); pKa (acidity constant (pKa); pKa): 3.9 |
| C[C@H](CCC(=O)NCC(=O)O)[C@H]1CC[C@H]2[C@@H]3[C@@H](O)C[C@@H]4C[C@H](O)CC[C@]4(C)[C@H]3CC[C@]12C [GUDCA, glycoursodeoxycholic acid] | 12 | 2.10 | 0.39 | 2.4 | 0.028 | – | – | low solubility at low pH | 0.0253 | solubility (solubility in water; Table I, read-out: Solubility): 3 µM (≈ 1.35 µg/mL) |
| C[C@H](CCC(=O)NCCS(=O)(=O)O)[C@H]1CC[C@H]2[C@@H]3[C@@H](O)C[C@@H]4C[C@H](O)CC[C@]4(C)[C@H]3CC[C@]12C [TUDCA, tauroursodeoxycholic acid] | 8 | 3.40 | 0.18 | 2.16 | 0.014 | – | – | – | -0.00877 | – |
| C[C@H](CCC(=O)O)[C@H]1CC[C@H]2[C@@H]3[C@@H](O)C[C@@H]4C[C@H](O)CC[C@]4(C)[C@H]3C[C@H](O)[C@]12C [UCA, ursocholic] | – | – | – | – | – | 60 | – | – | – | – |
| C[C@H](CCC(=O)O)[C@H]1CC[C@H]2[C@@H]3[C@@H](O)C[C@@H]4C[C@H](O)CC[C@]4(C)[C@H]3CC[C@]12C [UDCA, ursodeoxycholic, reference compound] | 19 | 3.02 | 0.227 | 3.6 | 0.022 | 19 | 0,4 | low solubility at low pH | 0.563 | solubility (solubility in water; Table III, read-out: water solubility): 19 µM (≈ 7.46 µg/mL); solubility (solubility in water; Table I, read-out: Solubility): 9 µM (≈ 3.53 µg/mL); pKa (acidity constant (pKa); Acidity constant, read-out: pKa value): 6; pKa (acidity constant (pKa); Table I): 5.06; pKa (acidity constant (pKa); Table III): 5; metabolites / conjugation ([4]; in vivo, iv): completely transformed into its conjugated form, tauroursodexycholic acid and to less extent into glycoursodeoxycholic acid |
